From US20250361274A1, “PEPTIDE AND PEPTIDE-CONTAINING AGENT” (PEPTIDREAM INC., priority 2022, published 2025)
Where two headings read alike, the source gives them in different places. Each block holds one molecule with its values, some of them ahead of it. Numbered stars: 1 amine (or outer) side, 2 acyl side, 3 side chain; on linkers, the order of the positions; unused ones are H or OH. Bridge positions count the residues as written; N and C are the ends. Square brackets hold non-standard residues; d marks the D form. Side chains are listed from the residue outwards. Peptide text beside a SMILES is read from it. I, II: the chains in the order shown. * marks the point of attachment. ξ: configuration not given here. KCOpipzaa = N6-(4-(carboxymethyl)piperazine-1-carbonyl)-L-lysine, O=C(NCCCC[C@H](N[*:1])C(=O)[*:2])N1CCN(CC(=O)[*:3])CC1; X10 = N=C(N)NCCC[C@H](CC(=O)[C@H](CCCCNC(=O)N1CCN(CC(=O)O)CC1)N[*:2])C(=O)[*:1]; X9 = O=C([C@H](Cc1ccc(-c2cccc(F)c2)cc1)N[*:1])[*:2]; 3Pal(6-Ph) = N[C@@H](Cc1ccc(-c2ccccc2)nc1)C(=O)O; X3 = O=C(C[C@@H](Cc1ccc(F)cc1)C(=O)[*:1])C[*:2]; Phe(4-COOH) = N[C@@H](Cc1ccc(C(=O)O)cc1)C(=O)O; NMePhe(4-Me) = CN[C@@H](Cc1ccc(C)cc1)C(=O)O; Piperazinyl(4-CH2COOH) = O=C(O)CN1CCN(*)CC1; Bip = N[C@@H](Cc1ccc(-c2ccccc2)cc1)C(=O)O; Phe(4-F) = N[C@@H](Cc1ccc(F)cc1)C(=O)O; Ala(4-THP) = N[C@@H](CC1CCOCC1)C(=O)O; cisHyp = O=C(O)[C@@H]1C[C@H](O)CN1; Hyp = O=C(O)[C@@H]1C[C@@H](O)CN1; NMeF = CN[C@@H](Cc1ccccc1)C(=O)O; Aad = N[C@@H](CCCC(=O)O)C(=O)O; Cha = N[C@@H](CC1CCCCC1)C(=O)O; β3hC = N[C@@H](CS)CC(=O)O; X5 = O=C(C[*:1])[*:2]; CO = O=C([*:1])[*:2]; ξC = NC(CS)C(=O)O; βAla = NCCC(=O)O

What was measured:
[1] = target: T1, BMP4 (Homo sapiens, UniProt P12644); experiment: BMP4 signal transduction inhibitory activity: SMAD1 phosphorylation by BMP4 stimulus, AlphaLISA SureFire, A549 cells; assay type: cell-based; conditions: for aLISA BMP4: SMAD1 phosphorylation, peptides of Synthesis 2, peptide 0.02, 0.2, 2 nM
T1 sequence (P12644 293-408): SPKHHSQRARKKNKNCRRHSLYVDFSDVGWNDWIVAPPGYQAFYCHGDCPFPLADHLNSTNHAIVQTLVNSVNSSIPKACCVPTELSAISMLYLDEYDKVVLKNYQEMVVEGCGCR

[2] = target: T2, BMP7 (Homo sapiens, UniProt P18075); experiment: BMP7 signal transduction inhibitory activity: SMAD1 phosphorylation by BMP7 stimulus, A549 cells; assay type: cell-based; conditions: for aLISA BMP7: A549 cells, 10 nM BMP7, peptides of Synthesis 2, peptide 1, 10, 100 nM
T2 sequence (P18075 293-431): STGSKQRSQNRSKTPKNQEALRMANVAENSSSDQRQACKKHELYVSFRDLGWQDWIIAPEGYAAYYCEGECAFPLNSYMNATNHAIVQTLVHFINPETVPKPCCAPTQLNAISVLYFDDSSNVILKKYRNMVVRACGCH
Procedure, shortened: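 Inhibition was measured as loss of BMP7-induced SMAD1 phosphorylation, using 10 nM BMP7 on A549 cells. Most peptides were given as three-concentration sets, such as 1/10/100, 10/100/1,000, 100/300/1,000 or 10/30/90 nM. Others were given as eight 1/3-ratio dilutions from 100 or 1,000 nM, alongside Noggin as control.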

[3] = target: T3, BMP4 (UniProt P12644 293-408); experiment: cell-based or functional assay
T3 sequence (looked up): T1 sequence (P12644 293-408)

[4] = target: T4, BMP7 (UniProt P18075 293-431); experiment: cell-based or functional assay
T4 sequence (looked up): T2 sequence (P18075 293-431)

[5] = target: T5, BMP5 (UniProt P22003 317-454, limits assumed); experiment: cell-based or functional assay
T5 sequence (looked up): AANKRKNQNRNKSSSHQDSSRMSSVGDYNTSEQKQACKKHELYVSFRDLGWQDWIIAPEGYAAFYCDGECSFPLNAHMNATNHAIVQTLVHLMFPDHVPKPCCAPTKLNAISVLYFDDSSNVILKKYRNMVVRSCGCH

[6] = target: T6, BMP6 (UniProt P22004 382-513, limits assumed); experiment: cell-based or functional assay
T6 sequence (looked up): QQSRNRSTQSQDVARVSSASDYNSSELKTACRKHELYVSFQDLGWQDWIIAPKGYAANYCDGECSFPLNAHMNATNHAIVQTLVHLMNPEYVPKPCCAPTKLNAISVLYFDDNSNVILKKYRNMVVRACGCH

[7] = target: T4, BMP7; experiment: cell-based or functional assay; remark: listed apart in the source

Molecule: CC(C)[C@@H]1NC(=O)[C@H](Cc2ccc(C(=O)O)cc2)NC(=O)[C@H](C(C)C)NC(=O)[C@H](CCCNC(=N)N)NC(=O)[C@H](CCC(=O)O)NC(=O)CSCC(C(=O)NCC(N)=O)NC(=O)[C@H](CO)NC(=O)[C@H](Cc2ccc(C(=O)O)cc2)NC(=O)[C@H](Cc2ccc(C(=O)O)cc2)NC(=O)[C@H](Cc2ccc(O)cc2)NC(=O)[C@H](Cc2ccc(-c3cccc(F)c3)cc2)NC(=O)[C@@H]2C[C@@H](O)CN2C(=O)[C@H](Cc2ccc(O)cc2)NC(=O)[C@H](CCCCNC(=O)N2CCN(CC(=O)O)CC2)NC(=O)[C@H](Cc2ccc(-c3ccccc3)nc2)NC(=O)[C@H](CCCNC(=N)N)CC(=O)[C@H](CCCCNC(=O)N2CCN(CC(=O)O)CC2)NC1=O (stereo partly shown) [SEQ ID No. 311, ClAc-E-R-V-F4COO-V-KCOpipzaa-R-3Py6Ph-KCOpipzaa-Y-Hyp-Bph3F-Y-F4COO-F4COO-S-C-G-NH2] (I: [3Pal(6-Ph)]K([CO-Piperazinyl(4-CH2COOH)])Y[Hyp][X9]Y[Phe(4-COOH)][Phe(4-COOH)]S[ξC]G-NH2 / II: ERV[Phe(4-COOH)]V; linker I:10-II:N via X5; linker I:N-II:C via X10)
aLISA BMP4 ([1]; A549 cells): A (showed an inhibitory activity of 50% or more in a zone to which the peptide was added to in an amount of 0.2 nM)
aLISA BMP7 [2]: C (showed less than 50% of inhibitory activity in 10 nM-addition zone and showed 50% or more of inhibitory activity in 100 nM-addition zone)

Molecule: CC(C)C[C@@H]1NC(=O)[C@H](Cc2ccccc2)N(C)C(=O)[C@H](CCCC(=O)O)NC(=O)[C@H](CC2CCCCC2)NC(=O)[C@H](CCC(=O)O)NC(=O)[C@H](CC(=O)O)NC(=O)CNC(=O)[C@H](Cc2ccc(-c3ccccc3)nc2)NC(=O)CNC(=O)[C@H](Cc2ccccc2)N(C)C(=O)CNC(=O)[C@H](Cc2ccccc2)NC(=O)CSC[C@@H](C(=O)NCCC(=O)N[C@H](CCC(=O)O)C(=O)O)NC(=O)[C@@H]2C[C@H](O)CN2C1=O [SEQ ID No. 415, ClAc-F-G-MeF-G-3Py6Ph-G-D-E-Cha-Hgl-MeF-L-P4Sh-C-bA-de-OH] ({CH2CO}-FG[NMeF]G[3Pal(6-Ph)]GDE[Cha][Aad][NMeF]L[cisHyp]C[βAla][dE]-OH; thioether N-14)
aLISA BMP4 ([1]; A549 cells): A (showed an inhibitory activity of 50% or more in a zone to which the peptide was added to in an amount of 0.2 nM)
aLISA BMP7 [2]: C (showed less than 50% of inhibitory activity in 10 nM-addition zone and showed 50% or more of inhibitory activity in 100 nM-addition zone)

Molecule: Cc1ccc(C[C@H]2C(=O)N[C@@H](CC(C)C)C(=O)N3C[C@@H](O)C[C@H]3C(=O)N[C@H](CC(=O)NCCC(=O)N[C@H](CCC(=O)O)C(=O)O)CSCC(=O)C[C@@H](Cc3ccc(F)cc3)C(=O)NCC(=O)N(C)[C@@H](Cc3ccccc3)C(=O)NCC(=O)N[C@@H](Cc3ccc(-c4ccccc4)nc3)C(=O)NCC(=O)N[C@@H](CC(=O)O)C(=O)N[C@@H](CCC(=O)O)C(=O)N[C@@H](CC3CCCCC3)C(=O)N[C@@H](CCCC(=O)O)C(=O)N2C)cc1 [SEQ ID No. 417, ClAc-F4F-G-MeF-G-3Py6Ph-G-D-E-Cha-Hgl-MeF4Me-L-P4Sh-C-bA-de-OH] (G[NMeF]G[3Pal(6-Ph)]GDE[Cha][Aad][NMePhe(4-Me)]L[cisHyp][β3hC][βAla][dE]-OH; linker N-13 via X3)
BMP4 inhibitory activity (in words) [1]: does not inhibit signal transduction of BMP 4
aLISA BMP4 ([1]; A549 cells): A (showed an inhibitory activity of 50% or more in a zone to which the peptide was added to in an amount of 0.2 nM)
BMP7 inhibitory activity (in words) [2]: same level of the BMP7 inhibitory activity as Noggin
aLISA BMP7 [2]: C (showed less than 50% of inhibitory activity in 10 nM-addition zone and showed 50% or more of inhibitory activity in 100 nM-addition zone)

Molecule: CC(C)[C@@H]1NC(=O)[C@H](Cc2ccc(C(=O)O)cc2)NC(=O)[C@H](C(C)C)NC(=O)[C@H](CCCNC(=N)N)NC(=O)[C@H](CCC(=O)O)NC(=O)CSC[C@@H](C(=O)NCC(N)=O)NC(=O)[C@H](CO)NC(=O)[C@H](Cc2ccc(C(=O)O)cc2)NC(=O)[C@H](Cc2ccc(C(=O)O)cc2)NC(=O)[C@H](Cc2ccc(O)cc2)NC(=O)[C@H](Cc2ccc(-c3ccccc3)cc2)NC(=O)[C@@H]2C[C@@H](O)CN2C(=O)[C@H](Cc2ccc(O)cc2)NC(=O)[C@H](CCCCNC(=O)N2CCN(CC(=O)O)CC2)NC(=O)[C@H](Cc2ccc(-c3ccccc3)nc2)NC(=O)[C@H](CCCNC(=N)N)NC(=O)[C@H](CCCCNC(=O)N2CCN(CC(=O)O)CC2)NC1=O [compound 277] ({CH2CO}-ERV[Phe(4-COOH)]VK([CO-Piperazinyl(4-CH2COOH)])R[3Pal(6-Ph)]K([CO-Piperazinyl(4-CH2COOH)])Y[Hyp][Bip]Y[Phe(4-COOH)][Phe(4-COOH)]SCG-NH2; thioether N-17)
aLIZA BMP4 (0.2 nM) % inh ([1]; BMP4 0.2 nM stimulus, peptide conc. in assay 0.02, 0.2, 2 nM, class symbols): B (showed less than 30% of inhibitory activity in 0.02 nM-addition zone and showed 30% or more of inhibitory activity in 0.2 nM-addition zone)
aLIZA BMP7 (10 nM) % inh ([2]; BMP7 10 nM stimulus, peptide conc. in assay 100, 300, 1000 nM, class symbols): H (showed less than 30% of inhibitory activity in 300 nM-addition zone and showed 30% or more of inhibitory activity in 1,000 nM-addition zone)

Molecule: Cc1ccc(C[C@H]2C(=O)N[C@@H](CC(C)C)C(=O)N3C[C@@H](O)C[C@H]3C(=O)N[C@H](C(=O)NCCC(=O)N[C@H](CCC(=O)O)C(=O)O)CSCC(=O)N[C@@H](Cc3ccc(F)cc3)C(=O)NCC(=O)N(C)[C@@H](Cc3ccccc3)C(=O)NCC(=O)N[C@@H](Cc3ccc(-c4ccccc4)nc3)C(=O)NCC(=O)N[C@@H](CC(=O)O)C(=O)N[C@@H](CCC(=O)O)C(=O)N[C@@H](CC3CCCCC3)C(=O)N[C@@H](CCCC(=O)O)C(=O)N2C)cc1 [compound 417] ({CH2CO}-[Phe(4-F)]G[NMeF]G[3Pal(6-Ph)]GDE[Cha][Aad][NMePhe(4-Me)]L[cisHyp]C[βAla][dE]-OH; thioether N-14)
aLISA BMP4 (0.2 nM) % inh ([1]; BMP4 0.2 nM stimulus, peptide conc. in assay 0.2, 2, 20 nM): ND (the inhibitory activity was less than 30% at the maximum concentration evaluated)
aLISA BMP7 (10 nM) % inh ([2]; BMP7 10 nM stimulus, peptide conc. in assay 1, 10, 100 nM): C (showed less than 30% of inhibitory activity in a zone to which the peptide was added in an amount of 1 nM and showed 30% or more of inhibitory activity in 10 nM-addition zone)

IC50 (nM), SMAD1 phosphorylation in A549 cells [3]: 0.08 nM
Molecule: {CH2CO}-ERVYVDR[3Pal(6-Ph)]SYV[Bip]Y[Phe(4-COOH)][Phe(4-COOH)]SCG-NH2 (thioether N-17 (inferred)) [BMP4 signal transduction inhibition peptide No. 87 (SEQ ID NO: 87)]

IC50 (nM), SMAD1 phosphorylation in A549 cells [4]: 15.6 nM
IC50, SMAD1 phosphorylation, BMP5 2 nM [5]: 19.3 nM
IC50, SMAD1 phosphorylation, BMP6 3 nM [6]: 28.7 nM
Molecule: {CH2CO}-[Phe(4-F)]G[NMeF]G[3Pal(6-Ph)]GDE[Cha][Aad][NMePhe(4-Me)]L[cisHyp]C[βAla][dE]-OH (thioether N-14 (inferred)) [BMP7 signal transduction inhibition peptide SEQ ID NO: 417 (Example 6)]

IC50 (nM), SMAD1 phosphorylation in A549 cells [3]: 0.052 nM
IC50 (nM), SMAD1 phosphorylation in A549 cells [7]: 1.6 nM
Molecule: {CH2CO}-ERV[Phe(4-COOH)][Ala(4-THP)][KCOpipzaa]R[Bip]PYP[Bip]Y[Phe(4-COOH)][Phe(4-COOH)]SC[βAla][dE]-OH (thioether N-17 (inferred)) [BMP4 signal transduction inhibition peptide No. 181]

IC50 ([1]; Table 2-2, 277 from 20 nM (1/3), 417 from 300 nM (1/4), ND = IC50 was not calculated): 0.13 nM
IC50 ([1]; Table 2, eight concentrations, ratio 1/3 from 2 nM, A549 cells): 0.08 nM
IC50 ([2]; Table 2-2, 277 from 1,000 nM (1/3), 417 from 300 nM (1/4)): 5.74 nM
IC50 ([2]; Table 2, eight concentrations, ratio 1/3 from 100 nM, ND = IC50 was not calculated in the evaluation systems): 2.7 nM
B1: Noggin: recombinant Human Noggin Protein (R&D), positive control; secreted protein that has BMP inhibitory activity (protein)
chain: QHYLHIRPAPSDNLPLVDLIEHPDPIFDPKEKDLNETLLRSLLGGHYDPGFMATSPPEDRPGGGGGAAGGAEDLAELDQLLRQRPSGAMPSEIKGLEFSEGLAQGKKQRLSKKLRRKLQMWLWSQTFCPVLYAWNDLGSRFWPRYVKVGSCFSKRSCSVPEGMVCKPSKSVHLTVLRWRCQRRGGQRCGWIPIQYPIISECKCSC
